Measurements from patent publication US20020004519A1, “METHOD FOR REDUCING CHLORIDE SECETION BY INTESTINAL EPITHLIAL CELLS IN SITU” (priority 1998, published 2002).

How the values were obtained:
[1] = system: T84 cells; assay: Electrogenic Cl- secretion (short circuit current, Isc) in confluent T84 monolayers; format: cell-based, human; conditions: for Inhibition of cAMP and Ca++ elicited Cl- secretion: comparison of compounds tested
[2] = system: cAMP- and Ca++-sensitive basolateral K+ channels of T84 cells; assay: Basolateral K+ conductance in T84 monolayers permeabilized apically with amphotericin B; format: cell-based, human; conditions: for Time course of K+ transport after treatment with forskolin and carbachol: forskolin 10 μM (cAMP agonist), carbachol 100 μM (Ca++ agonist)
Experimental: Selective mebrane Permeabilization and Measurement of Potassium Conductance of the Basolateral Membrane. The basolateral potassium conductance was measured using the technique developed by Dawson and co-workers. A potassium gradient (mucosal to serosal) was first established across the monolayer using asymmetric mucosal and serosal buffers containing K^+ as the sole permeant ion. The addition of amphotericin B (20 μM) to the mucosal reservoir forms conductive pores in the apical membrane, and thus removes all resistance to transepithelial potassium movement across this membrane. Thus, under the conditions of the experiment, in which the monolayer is short circuited (i.e., voltage-clamped at zero potential) and the transepithehal potassium gradient is constant, the amphotericin-dependent Isc becomes a measure of the rate of the transepithelial potassium flux across basolateral membranes. Changes in short circuit current (Isc), then represent changes in basolateral K^+ conductances (gK). Isc and K^+ conductances were measured using calomel electrodes, 3M KCI-agar bridges, and a voltage clamp (University of Iowa, Iowa City). To generate a voltage-current channel relationships, currents were elicited by 1 sec test potentials from −80 to +80 in 10 mV increments in the asymmetrical high K^+ gluconate solution. Calculation of basolateral membrane K^+ permeability: Membrane permeabilities were calculated according to the formula:
^pK=(cm/s)=^JK(mM/cm^2·s)/Δ[K^+](mM/cm^3)
where Δ [K^+] is equal to the difference in K^+ concentration (135 mM) between the asymmetric apical and basolateral bathing solutions. Maximal Isc values were converted into K^+ fluxes by dividing by the Faraday constant F (96,500 coulombs/mol) as previously described (Huflejt et al., J. Clin. Invest. 93: 1900-1910 (1994)).
Basolateral K+ transport was examined in T84 monolayers permeabilized apically by pretreatment with amphotericin B. Apical and basolateral buffers contained K+ as the sole permeant ion. All studies were performed with a 135 mM basolaterally directed K+ gradient. This method has been utilized previously to examine both Cl− and K+ transport in T84 cells and HT29-Cl0.16E cells. Briefly, ion conductances in the luminal or basolateral membranes of confluent T84 cell monolayers can be assessed separately by selectively permeabilizing the apical or basolateral membrane using the ionophore amphotericin B. This artificially removes all electrical resistance to ion transport across the plasma membrane containing pores formed by amphotericin B. As a result, the intact contralateral plasma membrane becomes rate limiting for transepithelial ion transport. Agonist-dependent changes in ion conductances can be assessed directly either as transepithelial short circuit current (Isc) in the presence of established ion gradients, or as transepithelial conductance (G) in the presence of established transepithelial potentials.

[3] = system: basolateral K+ channels of T84 cells; assay: 86Rb efflux from T84 monolayers as indicator of basolateral K+ channel activity; format: cell-based, human
Experimental: J. Physiol (Cell Physiol. 28):[…]-[…] (1990). […] One ml samples were obtained and replaced from the basolateral reservoir. […] Finally, the cell monolayer was rinsed, cut with its support from the polystyrene ring, and the residual cell-associated radioactivity was determined. Monolayers were maintained at 37° C. in room air throughout the study. ^86Rb was counted by scintillation counting and normalized to percent total uptake as previously described ([…], et al, Am. J. Physiol. (Cell Physiol. 28):[…]-[…] (1990).

[4] = system: apical membrane Cl- channels of T84 cells; assay: 125I efflux from T84 monolayers as indicator of apical Cl- channel activity; format: cell-based, human
Experimental: J. Physiol. (Cell Physiol. 28):[…]-[…] (1990). […] After washing twice in fresh HBSS, 0.5 ml samples were obtained every two min from the apical reservoir and replaced with fresh HBSS. […] Finally, the cell monolayer was rinsed, cut with its support from the polystyrene ring, and the residual cell-associated radioactivity was determined. Monolayers were maintained at 37° C. in room air throughout the study. ^125I was counted by gamma counting and normalized to percent total uptake as previously described ([…], et al, Am. J. Physiol. (Cell Physiol 28):[…]-[…] (1990).

[5] = system: basolateral NaK2Cl cotransporters of T84 cells; assay: Bumetanide-sensitive 86Rb uptake in T84 monolayers; format: cell-based, human
Experimental: Confluent monolayers on 5 cm^2 Transwell inserts were incubated for 30 minutes in HBSS at 37° C. […] Monolayers were cut from their inserts, placed into scintillation vials, and counted using standard methods.

[6] = system: apical membrane Cl- channels of T84 cells; assay: Apical Cl- conductance in T84 monolayers permeabilized basolaterally with amphotericin B; format: cell-based, human; conditions: forskolin 10 μM; symmetrical Cl- 142 mM
[7] = system: rabbit colonic mucosa; assay: Ussing chamber studies using rabbit colonic mucosa; conditions: 30 μM; forskolin 10 μM
Experimental: 4 male, New Zealand rabbits (2.5 kg) were anesthetized by an intravenous injection of pentobarbital (0.5 ml/kg). A 15 cm length of distal colon was removed and opened longitudinally. […] The volume of fluid on each side of the mucosa was 7 ml. Potential difference and Isc were monitored continuously and registered every 10 minutes.

[8] = system: cholera toxin-induced intestinal fluid secretion; format: in vivo, Balb/C mice
[9] = 33 μM during final 30 min of preincubation

## OC(c1ccccc1)(c1ccccc1)c1ccccc1Cl [2-chlorophenyl-bis-phenyl methanol]
[1]
  Inhibition of cAMP and Ca++ elicited Cl- secretion: effective at inhibiting chloride secretion
[2]
  Time course of K+ transport after treatment with forskolin and carbachol: Nearly identical results

## [Ba+2].[Cl-].[Cl-] [BaCl2]
[1]
  Cl- secretory response (Isc as percentage of control) to the Ca++-dependent agonist carbachol: no apparent affect
  Cl- secretory response (Isc as percentage of control) to the cAMP mediated agonist VIP: strongly inhibited
[2]; carbachol 100 μM, same monolayers, BaCl2 3 mM
  Effect on K+ transport induced by subsequent addition of carbachol: no detectable effect
[2]; forskolin 10 μM, BaCl2 3 mM in basolateral reservoirs
  Inhibition of the cAMP-sensitive IK elicited by forskolin: greater than 70%

## Clc1ccccc1C(c1ccccc1)(c1ccccc1)n1ccnc1 [clotrimazole]
[1]
  Cl- secretory response (Isc as percentage of control) to the Ca++-dependent agonist carbachol: inhibited
  Cl- secretory response (Isc as percentage of control) to the cAMP mediated agonist VIP: inhibited
  Inhibition of cAMP and Ca++ elicited Cl- secretion: most potent inhibitor tested
[1]; 33 μM preincubation, 5 μM VIP, 10 μM forskolin or 3 mM 8Br-cAMP
  Secretory response to agonists of sequential steps in the cAMP signalling cascade: inhibited
[1]; 33 μM pretreatment, carbachol 100 μM, thapsigargin 5 μM or ionomycin 10 μM
  Cl- secretory response to Ca++-dependent agonists: inhibited strongly
[1]; Homo sapiens, T84, read-out: IC50 for inhibiting the secretory response to E. Coli heat-stabile toxin
  IC50: 15 µM
[1]; after 60 min recovery in the presence of 0.01 mg/ml bovine serum albumin, n=4
  Reversibility of inhibition of Cl- secretion: 96±2%
[1]; basolateral versus apical application
  Apparent potency of inhibition at a fixed time point by side of application: greater when applied basolaterally than apically
[1]; low doses (=10^-7 or less), VIP or carbachol
  Potentiation of the Cl- secretory responses to either agonist at low doses: 5-10%
[3]; [9]
  86Rb loading of the cells: did not alter
[3]; 33 μM, VIP 5 μM
  Reduction of the rate constant for VIP-stimulated 86Rb efflux: 87%
[3]; T84 cells in the presence of VIP or thapsigargin, compared to cells not treated, FIG. 2
  Baseline and Ca++ stimulated 86RB efflux: significantly inhibited
[3]; monolayers treated with clotrimazole 33 μM, VIP 5 μM, n=2 in triplicate, untreated 0.0465
  Rate constant for VIP-stimulated 86Rb efflux: 0.0062 % uptake/minute
[3]; monolayers treated with clotrimazole 33 μM, thapsigargin 5 μM, n=2, untreated 0.048
  Rate constant for thapsigargin-stimulated 86Rb efflux: 0.011 % uptake/minute
[4]; [9]
  125I loading of the cells: did not alter
[4]; 33 μM pretreatment, VIP
  Time course of 125I efflux from monolayers treated with VIP: little or no effect
[4]; monolayers treated with clotrimazole (33 μM), VIP, n=2 in duplicate, untreated 0.0645
  Rate constant for 125I efflux: 0.0637 % uptake/minute
[5]; 33 μM for 30 min, VIP, mean±SEM, n=6
  Reduction of the total amount of 86Rb uptake: 53.6±5.8%
[5]; 33 μM for 30 min, bumetanide 10 μM
  Effect on the fractional component of 86Rb uptake that was bumetanide-sensitive: no effect
[5]; 0.5 h, 33 µM
  Bumetanide-sensitive fraction of 86Rb uptake: 88+3.2 % total uptake
[2]
  Time course of K+ transport after treatment with forskolin and carbachol: significantly inhibited
[6]
  Forskolin- or thapsigargin-stimulated Cl- conductances: no detectable effect
[7]
  Time course of forskolin induced Isc: inhibited strongly
[8]; 5 hours
  Reduction of intestinal fluid secretion induced by cholera toxin: 86%
[8]; mouse, in vivo
  Intestinal secretion in the absence of cholera toxin: no effect

## Clc1ccc(COC(Cn2ccnc2)c2ccc(Cl)cc2Cl)cc1 (centres unmarked) [econazole]
[1]
  Inhibition of cAMP and Ca++ elicited Cl- secretion: effective at inhibiting chloride secretion

## CC(=O)N1CCN(c2ccc(OCC3COC(Cn4ccnc4)(c4ccc(Cl)cc4Cl)O3)cc2)CC1 (centres unmarked) [ketoconazole]
[1]
  Inhibition of cAMP and Ca++ elicited Cl- secretion: effective at inhibiting chloride secretion

## Clc1ccc(COC(Cn2ccnc2)c2ccc(Cl)cc2Cl)c(Cl)c1 (centres unmarked) [miconazole]
[1]
  Inhibition of cAMP and Ca++ elicited Cl- secretion: effective at inhibiting chloride secretion

## charybdotoxin
[1]
  Cl- secretory response (Isc as percentage of control) to the Ca++-dependent agonist carbachol: strongly inhibited
  Cl- secretory response (Isc as percentage of control) to the cAMP mediated agonist VIP: minimal affects
[2]; carbachol first, pretreatment with charybdotoxin 100 nM
  Inhibition of the carbachol-induced Ca++ IK: 50%
[2]; charybdotoxin 100 nM
  Effect on K+ transport induced by subsequent addition of forskolin: no detectable effect
